Results: the kinase profiling compilation of Christmann-Franck et al. (2016)

Experiments:
Assay in all cases: KINOMEscan competition binding
Details in all cases: compound 10.0 µM
AXL (human) = AXL (human) (UniProt P30530)
TGFBR2 (human) = TGFBR2 (human) (UniProt P37173)
TNK2 (human) = TNK2 (human) (UniProt Q07912)
EPHB4 (human) = EPHB4 (human) (UniProt P54760)
TAOK2 (human) = TAOK2 (human) (UniProt Q9UL54)
STK35 (human) = STK35 (human) (UniProt Q8TDR2)
STK11 (human) = STK11 (human) (UniProt Q15831)
WEE1 (human) = WEE1 (human) (UniProt P30291)
MAP2K4 (human) = MAP2K4 (human) (UniProt P45985)
ACVR2A (human) = ACVR2A (human) (UniProt P27037)
MAPK11 (human) = MAPK11 (human) (UniProt Q15759)
MAP3K12 (human) = MAP3K12 (human) (UniProt Q12852)
SIK1 (human) = SIK1 (human) (UniProt P57059)
[1] = tested on: PIK3CA (human), P42336 [E545A]
MAPK9 (human) = MAPK9 (human) (UniProt P45984)
PIP5K1A (human) = PIP5K1A (human) (UniProt Q99755)
BMPR2 (human) = BMPR2 (human) (UniProt Q13873)
IRAK3 (human) = IRAK3 (human) (UniProt Q9Y616)
MAP2K7 (human) = MAP2K7 (human) (UniProt O14733)
STK25 (human) = STK25 (human) (UniProt O00506)
CDC42BPG (human) = CDC42BPG (human) (UniProt Q6DT37)
PIP4K2B (human) = PIP4K2B (human) (UniProt P78356)
EPHB1 (human) = EPHB1 (human) (UniProt P54762)
STK3 (human) = STK3 (human) (UniProt Q13188)
CDK19 (human) = CDK19 (human) (UniProt Q9BWU1)
INSRR (human) = INSRR (human) (UniProt P14616)
[2] = tested on: RET (human), P07949 [M918T]
SBK1 (human) = SBK1 (human) (UniProt Q52WX2)
MARK4 (human) = MARK4 (human) (UniProt Q96L34)
PAK2 (human) = PAK2 (human) (UniProt Q13177)
MAPK1 (human) = MAPK1 (human) (UniProt P28482)
DYRK1B (human) = DYRK1B (human) (UniProt Q9Y463)
NEK6 (human) = NEK6 (human) (UniProt Q9HC98)
MAPK3 (human) = MAPK3 (human) (UniProt P27361)
PRKAA1 (human) = PRKAA1 (human) (UniProt Q13131)
EPHA6 (human) = EPHA6 (human) (UniProt Q9UF33)
MAP4K2 (human) = MAP4K2 (human) (UniProt Q12851)
CSNK1G3 (human) = CSNK1G3 (human) (UniProt Q9Y6M4)
RPS6KA1 KD1 (human) = RPS6KA1 KD1 (human) (UniProt Q15418)
[3] = tested on: KIT (human), P10721 [D816H]
DAPK2 (human) = DAPK2 (human) (UniProt Q9UIK4)
Chain of DAPK2 (human) (Q9UIK4 whole entry, looked up): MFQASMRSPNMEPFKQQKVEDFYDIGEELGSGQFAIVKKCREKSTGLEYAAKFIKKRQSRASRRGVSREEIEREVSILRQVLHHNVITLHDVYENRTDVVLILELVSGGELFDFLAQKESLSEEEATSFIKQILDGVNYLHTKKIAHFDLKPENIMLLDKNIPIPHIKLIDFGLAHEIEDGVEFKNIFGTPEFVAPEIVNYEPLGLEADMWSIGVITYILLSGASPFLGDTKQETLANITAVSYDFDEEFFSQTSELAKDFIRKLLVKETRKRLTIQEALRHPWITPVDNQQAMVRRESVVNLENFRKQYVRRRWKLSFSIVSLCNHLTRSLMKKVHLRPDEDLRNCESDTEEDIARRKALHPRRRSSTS

Chain of NEK6 (human) (Q9HC98 whole entry, looked up): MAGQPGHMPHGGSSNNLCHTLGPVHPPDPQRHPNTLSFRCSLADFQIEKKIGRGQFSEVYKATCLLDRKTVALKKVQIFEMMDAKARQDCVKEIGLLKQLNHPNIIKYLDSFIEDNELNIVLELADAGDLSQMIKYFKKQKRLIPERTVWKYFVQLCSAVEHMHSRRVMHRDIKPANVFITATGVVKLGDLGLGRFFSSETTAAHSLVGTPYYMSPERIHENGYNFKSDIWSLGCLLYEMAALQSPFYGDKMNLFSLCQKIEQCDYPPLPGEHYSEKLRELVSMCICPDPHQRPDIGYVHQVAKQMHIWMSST
Chain of TNK2 (human) (Q07912 whole entry, looked up): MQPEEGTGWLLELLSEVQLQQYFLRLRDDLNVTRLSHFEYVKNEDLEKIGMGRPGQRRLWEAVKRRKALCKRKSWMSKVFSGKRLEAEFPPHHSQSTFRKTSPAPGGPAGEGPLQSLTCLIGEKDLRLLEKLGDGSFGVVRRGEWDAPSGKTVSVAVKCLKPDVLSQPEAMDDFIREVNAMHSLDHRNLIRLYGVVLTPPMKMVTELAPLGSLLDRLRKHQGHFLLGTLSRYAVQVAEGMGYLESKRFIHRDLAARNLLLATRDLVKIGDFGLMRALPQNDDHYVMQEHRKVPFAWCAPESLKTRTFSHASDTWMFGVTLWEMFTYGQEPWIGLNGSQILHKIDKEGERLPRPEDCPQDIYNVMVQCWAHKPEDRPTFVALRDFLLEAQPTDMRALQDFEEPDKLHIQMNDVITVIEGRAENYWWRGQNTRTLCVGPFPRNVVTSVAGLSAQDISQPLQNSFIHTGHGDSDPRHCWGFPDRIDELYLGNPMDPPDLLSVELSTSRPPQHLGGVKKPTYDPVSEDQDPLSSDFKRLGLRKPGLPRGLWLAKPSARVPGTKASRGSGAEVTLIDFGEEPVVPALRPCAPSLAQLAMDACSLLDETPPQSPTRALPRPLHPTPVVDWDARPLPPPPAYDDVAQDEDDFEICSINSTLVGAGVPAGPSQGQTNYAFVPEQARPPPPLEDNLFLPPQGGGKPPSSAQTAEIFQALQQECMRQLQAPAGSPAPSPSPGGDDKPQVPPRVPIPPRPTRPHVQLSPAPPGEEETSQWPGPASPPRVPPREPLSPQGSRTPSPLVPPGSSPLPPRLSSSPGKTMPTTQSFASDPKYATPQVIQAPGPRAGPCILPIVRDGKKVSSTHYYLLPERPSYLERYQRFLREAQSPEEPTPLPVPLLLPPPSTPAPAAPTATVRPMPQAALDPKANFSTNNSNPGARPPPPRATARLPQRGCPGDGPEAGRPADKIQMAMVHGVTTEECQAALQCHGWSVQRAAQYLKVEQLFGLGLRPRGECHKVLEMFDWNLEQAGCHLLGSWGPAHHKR
Chain of IRAK3 (human) (Q9Y616 whole entry, looked up): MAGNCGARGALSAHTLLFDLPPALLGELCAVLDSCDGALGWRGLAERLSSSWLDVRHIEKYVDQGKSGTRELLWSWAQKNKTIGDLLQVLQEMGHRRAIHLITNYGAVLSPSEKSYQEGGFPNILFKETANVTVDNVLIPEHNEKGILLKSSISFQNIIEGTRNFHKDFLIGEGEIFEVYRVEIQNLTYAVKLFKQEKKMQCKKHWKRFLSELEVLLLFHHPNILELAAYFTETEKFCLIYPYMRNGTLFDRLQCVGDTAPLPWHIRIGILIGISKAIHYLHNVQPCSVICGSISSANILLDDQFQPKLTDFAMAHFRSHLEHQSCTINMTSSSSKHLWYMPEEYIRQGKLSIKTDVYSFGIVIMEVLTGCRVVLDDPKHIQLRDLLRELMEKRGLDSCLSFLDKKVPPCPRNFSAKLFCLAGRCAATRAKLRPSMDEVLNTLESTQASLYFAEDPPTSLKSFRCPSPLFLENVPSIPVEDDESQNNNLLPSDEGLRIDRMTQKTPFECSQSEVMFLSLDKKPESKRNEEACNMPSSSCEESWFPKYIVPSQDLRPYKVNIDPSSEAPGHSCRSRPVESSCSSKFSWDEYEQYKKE
Chain of INSRR (human) (P14616 whole entry, looked up): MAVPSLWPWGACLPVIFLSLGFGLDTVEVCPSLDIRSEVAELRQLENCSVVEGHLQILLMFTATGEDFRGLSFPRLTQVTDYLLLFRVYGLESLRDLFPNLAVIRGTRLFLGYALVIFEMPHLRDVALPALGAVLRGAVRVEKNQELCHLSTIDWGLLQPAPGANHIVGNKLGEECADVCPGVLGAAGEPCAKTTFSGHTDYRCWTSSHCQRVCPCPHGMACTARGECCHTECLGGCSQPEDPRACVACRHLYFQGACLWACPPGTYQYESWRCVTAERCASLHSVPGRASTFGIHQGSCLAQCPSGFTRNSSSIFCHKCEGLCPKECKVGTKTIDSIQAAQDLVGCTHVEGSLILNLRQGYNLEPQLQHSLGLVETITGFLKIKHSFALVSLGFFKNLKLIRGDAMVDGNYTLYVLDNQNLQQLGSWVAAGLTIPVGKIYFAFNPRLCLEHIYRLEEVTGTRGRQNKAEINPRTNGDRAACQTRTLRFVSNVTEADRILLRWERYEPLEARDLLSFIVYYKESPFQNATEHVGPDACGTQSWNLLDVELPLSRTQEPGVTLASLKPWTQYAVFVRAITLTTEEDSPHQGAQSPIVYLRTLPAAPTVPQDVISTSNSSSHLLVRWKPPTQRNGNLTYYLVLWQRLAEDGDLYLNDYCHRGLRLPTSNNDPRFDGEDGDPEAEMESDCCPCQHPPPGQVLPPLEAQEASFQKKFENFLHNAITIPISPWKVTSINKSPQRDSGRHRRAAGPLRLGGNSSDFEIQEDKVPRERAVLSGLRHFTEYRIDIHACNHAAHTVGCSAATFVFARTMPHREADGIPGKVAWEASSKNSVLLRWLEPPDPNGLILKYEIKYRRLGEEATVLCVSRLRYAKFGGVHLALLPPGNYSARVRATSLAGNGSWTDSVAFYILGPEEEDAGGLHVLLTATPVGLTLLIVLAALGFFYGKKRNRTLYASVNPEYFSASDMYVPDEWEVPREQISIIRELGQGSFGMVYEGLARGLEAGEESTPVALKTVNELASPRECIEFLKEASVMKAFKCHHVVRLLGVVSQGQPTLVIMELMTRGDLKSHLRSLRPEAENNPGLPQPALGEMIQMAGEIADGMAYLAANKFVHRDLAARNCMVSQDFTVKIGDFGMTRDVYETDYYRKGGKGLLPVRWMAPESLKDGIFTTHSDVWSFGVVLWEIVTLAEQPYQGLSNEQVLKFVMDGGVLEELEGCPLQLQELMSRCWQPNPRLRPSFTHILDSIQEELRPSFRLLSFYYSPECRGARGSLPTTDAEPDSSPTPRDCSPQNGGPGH
Chain of STK3 (human) (Q13188 whole entry, looked up): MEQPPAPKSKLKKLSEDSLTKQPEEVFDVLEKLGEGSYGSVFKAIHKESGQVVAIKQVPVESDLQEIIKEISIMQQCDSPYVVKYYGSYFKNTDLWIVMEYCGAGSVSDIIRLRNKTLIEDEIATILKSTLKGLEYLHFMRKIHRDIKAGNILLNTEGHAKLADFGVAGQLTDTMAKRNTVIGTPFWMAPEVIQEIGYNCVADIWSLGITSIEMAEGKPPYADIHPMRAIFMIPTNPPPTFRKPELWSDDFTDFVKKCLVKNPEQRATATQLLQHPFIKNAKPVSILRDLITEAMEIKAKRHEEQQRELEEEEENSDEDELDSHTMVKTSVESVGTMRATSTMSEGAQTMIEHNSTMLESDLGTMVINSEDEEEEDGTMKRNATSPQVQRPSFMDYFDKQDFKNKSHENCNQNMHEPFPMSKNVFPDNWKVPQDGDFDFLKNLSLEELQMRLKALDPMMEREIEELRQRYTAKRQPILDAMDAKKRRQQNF
Chain of MAP3K12 (human) (Q12852 whole entry, looked up): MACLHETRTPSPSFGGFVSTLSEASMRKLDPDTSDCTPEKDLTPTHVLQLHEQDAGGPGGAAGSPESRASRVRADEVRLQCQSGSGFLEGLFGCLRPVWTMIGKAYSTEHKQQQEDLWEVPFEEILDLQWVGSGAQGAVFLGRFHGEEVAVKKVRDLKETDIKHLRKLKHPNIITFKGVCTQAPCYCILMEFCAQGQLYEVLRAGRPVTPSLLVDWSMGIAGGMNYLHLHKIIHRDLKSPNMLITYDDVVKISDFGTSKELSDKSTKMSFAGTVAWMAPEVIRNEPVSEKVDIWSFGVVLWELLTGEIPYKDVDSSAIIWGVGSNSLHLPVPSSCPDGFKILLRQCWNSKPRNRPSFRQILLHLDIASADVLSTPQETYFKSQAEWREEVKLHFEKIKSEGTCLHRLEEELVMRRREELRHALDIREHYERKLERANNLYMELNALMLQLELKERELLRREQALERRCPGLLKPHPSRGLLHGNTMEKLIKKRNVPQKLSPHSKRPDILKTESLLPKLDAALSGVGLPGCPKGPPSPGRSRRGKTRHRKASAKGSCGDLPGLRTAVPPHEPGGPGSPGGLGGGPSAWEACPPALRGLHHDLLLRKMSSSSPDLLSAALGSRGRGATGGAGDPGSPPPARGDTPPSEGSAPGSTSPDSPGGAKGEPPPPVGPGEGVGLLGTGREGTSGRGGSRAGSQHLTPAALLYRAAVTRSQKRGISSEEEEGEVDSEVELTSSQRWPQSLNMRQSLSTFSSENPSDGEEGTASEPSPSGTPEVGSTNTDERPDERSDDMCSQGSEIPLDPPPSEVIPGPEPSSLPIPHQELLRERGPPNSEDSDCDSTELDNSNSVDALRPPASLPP

With `CCC(=O)N1CCN(c2ccc(-n3c(=O)ccc4cnc5ccc(-c6cnc7ccccc7c6)cc5c43)cc2C(F)(F)F)CC1` the kinase still bound, per cent of control (AXL (human)) was 46%, the kinase still bound, per cent of control (TGFBR2 (human)) was 77% and the kinase still bound, per cent of control (TNK2 (human)) was 51%. It also gave a kinase still bound, per cent of control (EPHB4 (human)) of 85%, a kinase still bound, per cent of control (TAOK2 (human)) of 84% and a kinase still bound, per cent of control (STK35 (human)) of 18%. For the same molecule, the kinase still bound, per cent of control (STK11 (human)) was 100%, the kinase still bound, per cent of control (WEE1 (human)) was 42% and the kinase still bound, per cent of control (MAP2K4 (human)) was 30%. For the same molecule, the kinase still bound, per cent of control (ACVR2A (human)) was 47%, the kinase still bound, per cent of control (MAPK11 (human)) was 53% and the per cent of control (MAP3K12 (human)) was 100%. The kinase still bound, per cent of control (SIK1 (human)) was 80%, the kinase still bound, per cent of control [1] was 1% and the kinase still bound, per cent of control (MAPK9 (human)) was 40%. The kinase still bound, per cent of control (PIP5K1A (human)) was 89%, the kinase still bound, per cent of control (BMPR2 (human)) was 85% and the kinase still bound, per cent of control (IRAK3 (human)) was 27%. For the same molecule, the kinase still bound, per cent of control (MAP2K7 (human)) was 100%, the kinase still bound, per cent of control (STK25 (human)) was 84% and the kinase still bound, per cent of control (CDC42BPG (human)) was 1.6%. For the same molecule, the kinase still bound, per cent of control (PIP4K2B (human)) was 100%, the kinase still bound, per cent of control (EPHB1 (human)) was 100% and the kinase still bound, per cent of control (STK3 (human)) was 24%. It also gave a per cent of control (CDK19 (human)) of 1.2%, a kinase still bound, per cent of control (INSRR (human)) of 100% and a kinase still bound, per cent of control [2] of 51%. For the same molecule, the kinase still bound, per cent of control (SBK1 (human)) was 88%, the kinase still bound, per cent of control (MARK4 (human)) was 100% and the kinase still bound, per cent of control (PAK2 (human)) was 100%. It also gave a kinase still bound, per cent of control (MAPK1 (human)) of 100%, a kinase still bound, per cent of control (DYRK1B (human)) of 87% and a kinase still bound, per cent of control (NEK6 (human)) of 99%. The kinase still bound, per cent of control (MAPK3 (human)) was 91%, the kinase still bound, per cent of control (PRKAA1 (human)) was 91% and the kinase still bound, per cent of control (EPHA6 (human)) was 75%. The kinase still bound, per cent of control (MAP4K2 (human)) was 35%, the kinase still bound, per cent of control (CSNK1G3 (human)) was 100% and the kinase still bound, per cent of control (RPS6KA1 KD1 (human)) was 68%.
In the case of `CC(C)n1nc(-c2cc3cc(O)ccc3[nH]2)c2c(N)ncnc21`, the kinase still bound, per cent of control (AXL (human)) was 21%, the kinase still bound, per cent of control (TGFBR2 (human)) was 2.8% and the kinase still bound, per cent of control (TNK2 (human)) was 48%. For the same molecule, the kinase still bound, per cent of control (TAOK2 (human)) was 1.2%, the kinase still bound, per cent of control (STK11 (human)) was 79% and the kinase still bound, per cent of control (WEE1 (human)) was 72%. It also gave a kinase still bound, per cent of control (MAP2K4 (human)) of 3.4%, a kinase still bound, per cent of control (ACVR2A (human)) of 0.5% and a kinase still bound, per cent of control (MAPK11 (human)) of 100%. For the same molecule, the per cent of control (MAP3K12 (human)) was 84%, the kinase still bound, per cent of control (SIK1 (human)) was 13% and the kinase still bound, per cent of control (PIP5K1A (human)) was 62%. It also gave a kinase still bound, per cent of control (BMPR2 (human)) of 0.1%, a kinase still bound, per cent of control (IRAK3 (human)) of 12% and a kinase still bound, per cent of control [3] of 16%. It also gave a kinase still bound, per cent of control (MAP2K7 (human)) of 75%, a kinase still bound, per cent of control (STK25 (human)) of 53% and a kinase still bound, per cent of control (CDC42BPG (human)) of 86%. For the same molecule, the kinase still bound, per cent of control (PIP4K2B (human)) was 55%, the kinase still bound, per cent of control (EPHB1 (human)) was 49% and the per cent of control (CDK19 (human)) was 24%. For the same molecule, the kinase still bound, per cent of control (INSRR (human)) was 100%, the kinase still bound, per cent of control [2] was 0% and the kinase still bound, per cent of control (SBK1 (human)) was 92%. For the same molecule, the kinase still bound, per cent of control (MARK4 (human)) was 82%, the kinase still bound, per cent of control (PAK2 (human)) was 31% and the kinase still bound, per cent of control (MAPK1 (human)) was 100%. For the same molecule, the kinase still bound, per cent of control (DYRK1B (human)) was 59%, the kinase still bound, per cent of control (NEK6 (human)) was 100% and the kinase still bound, per cent of control (MAPK3 (human)) was 100%. The kinase still bound, per cent of control (PRKAA1 (human)) was 43%, the kinase still bound, per cent of control (EPHA6 (human)) was 5.2% and the kinase still bound, per cent of control (MAP4K2 (human)) was 0%. The kinase still bound, per cent of control (DAPK2 (human)) was 3.8% and the kinase still bound, per cent of control (RPS6KA1 KD1 (human)) was 32%.
`COc1ccc(-c2ccc3c(N4CCOCC4)nc(N4C[C@@H](C)O[C@@H](C)C4)nc3n2)cc1CO` was tested, and the kinase still bound, per cent of control (AXL (human)) was 100%, the kinase still bound, per cent of control (TGFBR2 (human)) was 92% and the kinase still bound, per cent of control (TNK2 (human)) was 100%. For the same molecule, the kinase still bound, per cent of control (EPHB4 (human)) was 100%, the kinase still bound, per cent of control (TAOK2 (human)) was 76% and the kinase still bound, per cent of control (STK35 (human)) was 96%. The kinase still bound, per cent of control (STK11 (human)) was 95%, the kinase still bound, per cent of control (WEE1 (human)) was 98% and the kinase still bound, per cent of control (MAP2K4 (human)) was 88%. It also gave a kinase still bound, per cent of control (ACVR2A (human)) of 100%, a kinase still bound, per cent of control (MAPK11 (human)) of 98% and a per cent of control (MAP3K12 (human)) of 100%. The kinase still bound, per cent of control (SIK1 (human)) was 90%, the kinase still bound, per cent of control [1] was 2.4% and the kinase still bound, per cent of control (MAPK9 (human)) was 76%. It also gave a kinase still bound, per cent of control (PIP5K1A (human)) of 97%, a kinase still bound, per cent of control (BMPR2 (human)) of 79% and a kinase still bound, per cent of control (IRAK3 (human)) of 100%. The kinase still bound, per cent of control [3] was 100%, the kinase still bound, per cent of control (MAP2K7 (human)) was 100% and the kinase still bound, per cent of control (STK25 (human)) was 100%. The kinase still bound, per cent of control (CDC42BPG (human)) was 65%, the kinase still bound, per cent of control (PIP4K2B (human)) was 100% and the kinase still bound, per cent of control (EPHB1 (human)) was 100%. The kinase still bound, per cent of control (STK3 (human)) was 85%, the per cent of control (CDK19 (human)) was 73% and the kinase still bound, per cent of control (INSRR (human)) was 100%. The kinase still bound, per cent of control [2] was 100%, the kinase still bound, per cent of control (SBK1 (human)) was 100% and the kinase still bound, per cent of control (MARK4 (human)) was 84%. The kinase still bound, per cent of control (PAK2 (human)) was 91%, the kinase still bound, per cent of control (MAPK1 (human)) was 100% and the kinase still bound, per cent of control (DYRK1B (human)) was 85%. It also gave a kinase still bound, per cent of control (NEK6 (human)) of 96%, a kinase still bound, per cent of control (MAPK3 (human)) of 100% and a kinase still bound, per cent of control (PRKAA1 (human)) of 97%. For the same molecule, the kinase still bound, per cent of control (EPHA6 (human)) was 100%, the kinase still bound, per cent of control (MAP4K2 (human)) was 86% and the kinase still bound, per cent of control (DAPK2 (human)) was 80%. The kinase still bound, per cent of control (CSNK1G3 (human)) was 92% and the kinase still bound, per cent of control (RPS6KA1 KD1 (human)) was 70%.
In the case of `COC(=O)Nc1ccc(-c2nc(N3CCOCC3)c3cnn(C4CCN(C(=O)OC)CC4)c3n2)cc1`, the kinase still bound, per cent of control (AXL (human)) was 100%, the kinase still bound, per cent of control (TGFBR2 (human)) was 78% and the kinase still bound, per cent of control (TNK2 (human)) was 100%. For the same molecule, the kinase still bound, per cent of control (EPHB4 (human)) was 94%, the kinase still bound, per cent of control (TAOK2 (human)) was 73% and the kinase still bound, per cent of control (STK35 (human)) was 91%. It also gave a kinase still bound, per cent of control (STK11 (human)) of 100%, a kinase still bound, per cent of control (WEE1 (human)) of 100% and a kinase still bound, per cent of control (MAP2K4 (human)) of 74%. For the same molecule, the kinase still bound, per cent of control (ACVR2A (human)) was 100%, the kinase still bound, per cent of control (MAPK11 (human)) was 80% and the per cent of control (MAP3K12 (human)) was 97%. For the same molecule, the kinase still bound, per cent of control (SIK1 (human)) was 100%, the kinase still bound, per cent of control [1] was 5.5% and the kinase still bound, per cent of control (MAPK9 (human)) was 100%. The kinase still bound, per cent of control (PIP5K1A (human)) was 98%, the kinase still bound, per cent of control (BMPR2 (human)) was 92% and the kinase still bound, per cent of control (IRAK3 (human)) was 79%. For the same molecule, the kinase still bound, per cent of control [3] was 75%, the kinase still bound, per cent of control (MAP2K7 (human)) was 100% and the kinase still bound, per cent of control (STK25 (human)) was 78%. It also gave a kinase still bound, per cent of control (CDC42BPG (human)) of 100%, a kinase still bound, per cent of control (PIP4K2B (human)) of 100% and a kinase still bound, per cent of control (EPHB1 (human)) of 100%. For the same molecule, the kinase still bound, per cent of control (STK3 (human)) was 85%, the per cent of control (CDK19 (human)) was 98% and the kinase still bound, per cent of control (INSRR (human)) was 100%. The kinase still bound, per cent of control [2] was 87%, the kinase still bound, per cent of control (SBK1 (human)) was 100% and the kinase still bound, per cent of control (MARK4 (human)) was 96%. It also gave a kinase still bound, per cent of control (PAK2 (human)) of 91%, a kinase still bound, per cent of control (MAPK1 (human)) of 100% and a kinase still bound, per cent of control (DYRK1B (human)) of 93%. The kinase still bound, per cent of control (NEK6 (human)) was 100%, the kinase still bound, per cent of control (MAPK3 (human)) was 99% and the kinase still bound, per cent of control (PRKAA1 (human)) was 100%. It also gave a kinase still bound, per cent of control (EPHA6 (human)) of 90%, a kinase still bound, per cent of control (MAP4K2 (human)) of 100% and a kinase still bound, per cent of control (DAPK2 (human)) of 96%. For the same molecule, the kinase still bound, per cent of control (CSNK1G3 (human)) was 100% and the kinase still bound, per cent of control (RPS6KA1 KD1 (human)) was 100%.
